*1 amine or outer side, *2 acyl side, *3 side chain or, on linkers, in order; H or OH if unused. Where a SMILES comes first, the peptide text is derived from it. Bridges are numbered along the chain shown (N, C = ends). [ ]: non-standard residue; d: D form. The star is where a group is joined. hPhe(3-Cl-4-CF3) = N[C@@H](CCc1ccc(C(F)(F)F)c(Cl)c1)C(=O)O; NPrPhe(4-CF3) = CCCN[C@@H](Cc1ccc(C(F)(F)F)cc1)C(=O)O; X48 = C=CCCN([C@@H](Cc1ccc(C)cc1)C(=O)[*:2])[*:1]; NEtPhe(4-Me) = CCN[C@@H](Cc1ccc(C)cc1)C(=O)O; NMeGly(cPent) = CN[C@H](C(=O)O)C1CCCC1; Gly(cPent) = N[C@H](C(=O)O)C1CCCC1; Hyp = O=C(O)[C@@H]1C[C@@H](O)CN1; NMeD = CN[C@@H](CC(=O)O)C(=O)O; NMeL = CN[C@@H](CC(C)C)C(=O)O; Morpholide = C1CN(*)CCO1; NMeA = CN[C@@H](C)C(=O)O; Ac5c = NC1(C(=O)O)CCCC1; Aze = O=C(O)[C@@H]1CCN1; Sar = CNCC(=O)O
Experiments:
[1] = biological target: GDP-bound NRAS wild-type protein (Homo sapiens, UniProt P01111); test: Binding to NRAS by surface plasmon resonance (SPR), Single Cycle Kinetics
Sequence of GDP-bound NRAS wild-type protein (P01111 whole entry): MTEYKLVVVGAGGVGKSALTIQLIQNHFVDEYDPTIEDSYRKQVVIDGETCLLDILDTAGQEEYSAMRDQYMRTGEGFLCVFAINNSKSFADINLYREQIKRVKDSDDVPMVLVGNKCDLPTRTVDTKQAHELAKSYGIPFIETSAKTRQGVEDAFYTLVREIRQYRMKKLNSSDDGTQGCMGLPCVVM

[2] = biological target: GDP-bound HRAS wild-type protein (Homo sapiens, UniProt P01112); test: Binding to HRAS by surface plasmon resonance (SPR), Single Cycle Kinetics
Sequence of GDP-bound HRAS wild-type protein (P01112 whole entry): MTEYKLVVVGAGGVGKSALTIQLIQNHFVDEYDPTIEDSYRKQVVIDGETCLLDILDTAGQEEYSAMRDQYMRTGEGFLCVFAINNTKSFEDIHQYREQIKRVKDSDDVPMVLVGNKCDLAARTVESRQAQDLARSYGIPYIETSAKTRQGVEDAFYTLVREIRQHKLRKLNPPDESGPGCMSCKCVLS

[3] = KD ratio, GDP-bound NRAS wild-type vs GDP-bound KRAS wild-type, SPR
[4] = KD ratio, GDP-bound HRAS wild-type vs GDP-bound KRAS wild-type, SPR

Question: Which “NRAS/KRAS (ratio of KD for GDP-bound NRAS wild-type to KD for KRAS)” value ([1]; SPR) does the source give for `C=CCCN1C(=O)[C@@H]2CCN2C(=O)[C@H](C)N(C)C(=O)[C@H]([C@@H](C)CC)NC(=O)[C@H](CC(C)C)N(C)C(=O)C[C@@H](C(=O)N2CCOCC2)N(C)C(=O)[C@H](C2CCCC2)N(C)C(=O)C2(CCCC2)NC(=O)[C@@H]2CCCN2C(=O)[C@H](CCc2ccc(C(F)(F)F)c(Cl)c2)NC(=O)CN(C)C(=O)[C@@H]1Cc1ccc(C)cc1` [PP0089] ([NMeL]I[NMeA][Aze][X48][Sar][hPhe(3-Cl-4-CF3)]P[Ac5c][NMeGly(cPent)][NMeD]-Morpholide; lactam N-11) here?
Answer: Its value is “C (A compound having a KD ratio of 0.1 or more and less than 3 is denoted as C)”.

Question: What about the “HRAS/KRAS (ratio of KD for GDP-bound HRAS wild-type to KD for KRAS)” value ([2]; SPR) of the same compound?
Answer: Its value is “B (a compound having 3 or more and less than 10 is denoted as B)”.

Question: For `CC[C@H](C)[C@@H]1NC(=O)[C@H](CC(C)C)N(C)C(=O)C[C@@H](C(=O)N2CCOCC2)N(C)C(=O)[C@H](C2CCCC2)N(C)C(=O)C2(CCCC2)NC(=O)[C@@H]2CC(F)(F)CN2C(=O)[C@H](CCc2ccc(C(F)(F)F)c(Cl)c2)NC(=O)CN(C)C(=O)[C@H](Cc2ccc(F)cc2)N2CCCCC[C@@H](C2=O)N(C)C(=O)CN(C)C1=O` [PP0966], which “NRAS/KRAS (ratio of KD value with respect to NRAS to KD value with respect to KRAS)” value [1, 3] is on record?
Answer: The value was “B (a compound having 3 or more and less than 10 is denoted as B)”.

Question: What about the “HRAS/KRAS (ratio of KD value with respect to HRAS to KD value with respect to KRAS)” value [2, 4] of the same compound?
Answer: The value was “B (a compound having 3 or more and less than 10 is denoted as B)”.

Question: With `CCC[C@H]1C(=O)N[C@@H]([C@@H](C)CC)C(=O)N(C)CC(=O)N(C)[C@H]2C/C=C\CCN(C2=O)[C@@H](Cc2ccc(C(F)(F)F)cc2)C(=O)N(C)CC(=O)N[C@@H](CCc2ccc(Cl)c(Cl)c2)C(=O)N2C[C@H](OCC)C[C@H]2C(=O)NC2(CC(C)(C)C2)C(=O)N(C)[C@@H](CC(C)(C)C)C(=O)N(C)[C@H](C(=O)N(C)C)CC(=O)N1C` [PP2738] as the compound, how does the “NRAS/KRAS (ratio of KD value with respect to GDP-bound NRAS wild-type protein to KD value with respect to KRAS)” value ([1]; class symbols) read?
Answer: Its value is “AA (a compound having 20 or more is denoted as AA)”.

Question: What about the “HRAS/KRAS (ratio of KD value with respect to GDP-bound HRAS wild-type protein to KD value with respect to KRAS)” value ([2]; class symbols) of the same compound?
Answer: The value was “A (a compound having 10 or more and less than 20 is denoted as A)”.

Question: `CCO[C@@H]1C[C@H]2C(=O)NC3(CCC3)C(=O)N(C)[C@@H](C3CCCC3)C(=O)N(C)[C@H](C(=O)N(C)C)CC(=O)N(C)[C@@H](CC)C(=O)N[C@@H]([C@@H](C)CC)C(=O)N(C)CC(=O)N(C)[C@H]3CCCCN(C3=O)[C@@H](Cc3ccc(C(F)(F)F)cc3)C(=O)N(C)CC(=O)N[C@@H](CCc3ccc4ccsc4c3)C(=O)N2C1` [PP0888] was tested. Which “NRAS/KRAS (ratio of KD value with respect to NRAS to KD value with respect to KRAS)” value [1, 3] did it give?
Answer: Its value is “C (A compound having a KD ratio of 0.1 or more and less than 3 is denoted as C)”.

Question: What about the “HRAS/KRAS (ratio of KD value with respect to HRAS to KD value with respect to KRAS)” value [2, 4] of the same compound?
Answer: The value was “B (a compound having 3 or more and less than 10 is denoted as B)”.

Question: Which results are given for `CCCN1C(=O)[C@@H]2CCN2C(=O)[C@H](C)N(C)C(=O)[C@H](C2CCCC2)NC(=O)[C@H](CC(C)C)N(C)C(=O)C[C@@H](C(=O)N2CCOCC2)N(C)C(=O)[C@H](C2CCCC2)N(C)C(=O)C2(CCCC2)NC(=O)[C@@H]2CCCN2C(=O)[C@H](CCc2ccc(C(F)(F)F)c(Cl)c2)NC(=O)CN(C)C(=O)[C@@H]1Cc1ccc(C(F)(F)F)cc1` [PP0272] ([NMeL][Gly(cPent)][NMeA][Aze][NPrPhe(4-CF3)][Sar][hPhe(3-Cl-4-CF3)]P[Ac5c][NMeGly(cPent)][NMeD]-Morpholide; lactam N-11)?
Answer: NRAS/KRAS (ratio of KD for GDP-bound NRAS wild-type to KD for KRAS) ([1]; SPR): C (A compound having a KD ratio of 0.1 or more and less than 3 is denoted as C); HRAS/KRAS (ratio of KD for GDP-bound HRAS wild-type to KD for KRAS) ([2]; SPR): B (a compound having 3 or more and less than 10 is denoted as B)

Question: What does the source list for `CCO[C@@H]1C[C@H]2C(=O)NC3(CCCC3)C(=O)N(C)[C@@H](C3CCCC3)C(=O)N(C)[C@H](C(=O)N3CCOCC3)CC(=O)N(C)[C@@H](CC(C)C)C(=O)N[C@@H]([C@@H](C)CC)C(=O)N(C)CC(=O)N(C)CC(=O)N(CC)[C@@H](Cc3ccc(C)cc3)C(=O)N(C)CC(=O)N[C@@H](CCc3ccc(C(F)(F)F)c(Cl)c3)C(=O)N2C1` [PP0042] ([NMeL]I[Sar][Sar][NEtPhe(4-Me)][Sar][hPhe(3-Cl-4-CF3)][Hyp](Et)[Ac5c][NMeGly(cPent)][NMeD]-Morpholide; lactam N-11)?
Answer: NRAS/KRAS (ratio of KD for GDP-bound NRAS wild-type to KD for KRAS) ([1]; SPR): C (A compound having a KD ratio of 0.1 or more and less than 3 is denoted as C); HRAS/KRAS (ratio of KD for GDP-bound HRAS wild-type to KD for KRAS) ([2]; SPR): C (A compound having a KD ratio of 0.1 or more and less than 3 is denoted as C)

Question: Which “NRAS/KRAS (ratio of KD value for NRAS to KD value for KRAS)” value [1, 3] does the source give for `CC[C@H](C)[C@@H]1NC(=O)[C@H](CC2CCC2)N(C)C(=O)C[C@@H](C(=O)N(C)C)N(C)C(=O)[C@H](C2CCCC2)N(C)C(=O)C2(CC(C)(C)C2)NC(=O)[C@@H]2CCCN2C(=O)[C@H](CCc2cc(F)c(C(F)(F)F)c(F)c2)NC(=O)CN(C)C(=O)[C@H](Cc2ccc(C(F)(F)F)cc2)N2CC/C=C\C[C@@H](C2=O)N(C)C(=O)CN(C)C1=O` [PP1728] here?
Answer: Its value is “A (a compound having 10 or more and less than 20 is denoted as A)”.

Question: And the “HRAS/KRAS (ratio of KD value for HRAS to KD value for KRAS)” value [2, 4]?
Answer: Its value is “A (a compound having 10 or more and less than 20 is denoted as A)”.

Question: How did the “NRAS/KRAS (ratio of KD value with respect to GDP-bound NRAS wild-type protein to KD value with respect to KRAS)” value ([1]; SPR) turn out when `CC[C@H](C)[C@@H]1NC(=O)[C@H](CC(C)C)N(C)C(=O)C[C@@H](C(=O)N2CCOCC2)N(C)C(=O)[C@H](C2CCCC2)N(C)C(=O)C2(CCCC2)NC(=O)[C@@H]2CCCN2C(=O)[C@H](CCc2ccc(C(F)(F)F)c(Cl)c2)NC(=O)CN(C)C(=O)[C@H](Cc2ccc(OC)cc2)N2CC=CC[C@@H](C2=O)N(C)C(=O)CN(C)C1=O` [PP0535] was run?
Answer: The value was “C (A compound having a KD ratio of 0.1 or more and less than 3 is denoted as C)”.

Question: What about the “HRAS/KRAS (ratio of KD value with respect to GDP-bound HRAS wild-type protein to KD value with respect to KRAS)” value ([2]; SPR) of the same compound?
Answer: The value was “B (a compound having 3 or more and less than 10 is denoted as B)”.

Question: What does the source list for `C=CCCCCN(C)C(=O)[C@@H]1CC(=O)N(C)[C@@H](CC2CC2)C(=O)N[C@@H](CC=C)C(=O)N(C)CC(=O)N(C)[C@H]2C/C=C\CCN(C2=O)[C@@H](Cc2ccc(C(F)(F)F)cc2)C(=O)N(C)CC(=O)N[C@@H](CCc2cc(F)c(C(F)(F)F)c(F)c2)C(=O)N2C[C@H](OCC)C[C@H]2C(=O)NC2(CCC2)C(=O)N(C)[C@@H](C2CCCC2)C(=O)N1C` [PP1554]?
Answer: NRAS/KRAS (ratio of KD value for GDP-bound NRAS wild-type protein to KD value for KRAS) ([1]; SPR, KD ratio class): A (a compound having 10 or more and less than 20 is denoted as A); HRAS/KRAS (ratio of KD value for GDP-bound HRAS wild-type protein to KD value for KRAS) ([2]; SPR, KD ratio class): A (a compound having 10 or more and less than 20 is denoted as A)

Question: How did the “NRAS/KRAS (ratio of KD value with respect to NRAS to KD value with respect to KRAS)” value ([1]; SPR, GDP-bound NRAS wild-type vs GDP-bound KRAS wild-type) turn out when `CCO[C@@H]1C[C@H]2C(=O)NC3(CC(C)(C)C3)C(=O)N(C)[C@@H](C3CCCC3)C(=O)N(C)[C@H](C(=O)N(C)C)CC(=O)N(C)[C@@H](COC)C(=O)N[C@@H]([C@@H](C)CC)C(=O)N(C)CC(=O)N(C)[C@H]3C/C=C\CCN(C3=O)[C@@H](Cc3ccc(C)cc3)C(=O)N(C)CC(=O)N[C@@H](CCc3cc(F)c(C(F)(F)F)c(F)c3)C(=O)N2C1` [PP2391] was run?
Answer: Its value is “A (a compound having 10 or more and less than 20 is denoted as A)”.

Question: What about the “HRAS/KRAS (ratio of KD value with respect to HRAS to KD value with respect to KRAS)” value ([2]; SPR, GDP-bound HRAS wild-type vs GDP-bound KRAS wild-type) of the same compound?
Answer: The value was “A (a compound having 10 or more and less than 20 is denoted as A)”.

— patent US20250230193A1, “CYCLIC COMPOUND HAVING SELECTIVE KRAS INHIBITORY EFFECT ON HRAS AND NRAS” (CHUGAI SEIYAKU KABUSHIKI KAISHA, priority 2022, published 2025)
